Columns and labels:
[1] = Cellular CaCo2 permeability assay from apical to basal (A-B); assay type: in vitro ADME; settings: human, Caco-2, read-out: Pe A-B (permeability)
From the text: The permeability in 10^−6 cm/s of compounds of formula (I) have been confirmed for selected example using a cellular CaCo2 permeability assay from apical to basal (A-B): […]

PI3K alpha = molecular target: T1, PI3K alpha (Homo sapiens, UniProt P42336); test: PI3K alpha kinase assay (Kinase-Glo luminescence); assay type: biochemical
T1 construct: p85(iSH2) fusion partner (see partner chain) (N); His tag (C); made in house; host or cells: baculovirus; Tn5 (Trichoplusia ni) or TiniPro insect cells
T1 sequence (P42336 with tags, fused parts or gaps limits assumed): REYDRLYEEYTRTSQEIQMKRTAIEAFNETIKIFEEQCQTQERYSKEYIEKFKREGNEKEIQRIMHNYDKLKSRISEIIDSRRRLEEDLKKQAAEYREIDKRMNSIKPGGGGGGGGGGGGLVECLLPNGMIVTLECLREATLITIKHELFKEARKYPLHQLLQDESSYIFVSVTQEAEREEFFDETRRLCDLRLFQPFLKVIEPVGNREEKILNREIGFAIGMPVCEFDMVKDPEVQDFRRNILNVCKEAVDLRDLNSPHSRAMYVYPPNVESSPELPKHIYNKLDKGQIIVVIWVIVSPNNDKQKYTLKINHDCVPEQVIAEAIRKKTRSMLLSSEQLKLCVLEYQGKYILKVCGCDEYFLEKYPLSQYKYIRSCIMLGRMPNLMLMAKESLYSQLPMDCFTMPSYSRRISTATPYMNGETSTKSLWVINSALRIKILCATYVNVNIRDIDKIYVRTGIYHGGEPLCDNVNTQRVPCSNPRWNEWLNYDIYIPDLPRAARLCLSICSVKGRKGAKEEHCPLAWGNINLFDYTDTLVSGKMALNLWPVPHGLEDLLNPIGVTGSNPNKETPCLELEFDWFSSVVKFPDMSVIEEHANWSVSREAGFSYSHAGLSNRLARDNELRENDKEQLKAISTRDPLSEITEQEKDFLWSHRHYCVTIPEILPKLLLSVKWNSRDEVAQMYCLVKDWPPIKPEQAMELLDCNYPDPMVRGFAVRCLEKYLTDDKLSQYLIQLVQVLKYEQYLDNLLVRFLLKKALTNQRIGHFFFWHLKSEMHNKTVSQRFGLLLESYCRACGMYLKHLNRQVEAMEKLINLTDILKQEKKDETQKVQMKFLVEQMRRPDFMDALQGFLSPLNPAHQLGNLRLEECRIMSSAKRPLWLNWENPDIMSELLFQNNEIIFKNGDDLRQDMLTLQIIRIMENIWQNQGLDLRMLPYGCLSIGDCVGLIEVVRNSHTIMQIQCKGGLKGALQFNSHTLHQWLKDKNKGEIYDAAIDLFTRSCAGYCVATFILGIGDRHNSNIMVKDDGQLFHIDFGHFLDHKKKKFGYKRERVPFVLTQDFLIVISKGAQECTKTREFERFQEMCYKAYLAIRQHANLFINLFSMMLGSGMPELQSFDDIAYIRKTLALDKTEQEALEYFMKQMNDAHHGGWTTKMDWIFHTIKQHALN
Summary of the method: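 Compounds are titrated at 8 concentrations and mixed with PI3Kα protein (EMV B1075, 10 nM) in phosphatidylinositol (10 μg/mL). ATP at 1 μM starts the 60-minute room-temperature reaction, which is stopped with Kinase-Glo before luminescence reading. Four-parameter curve fitting gives IC50.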

PI3K beta = molecular target: T2, PI3K beta (Homo sapiens, UniProt P42338); test: PI3K beta kinase assay (Kinase-Glo luminescence); assay type: biochemical
T2 construct: for the full-length p110-b subunit are generated and fused by overlapping PCR; p85(iSH2) fusion partner (see partner chain) (N); His tag (C); made in house; host or cells: baculovirus; Tn5 (Trichoplusia ni) or TiniPro insect cells
T2 sequence (P42338 with tags, fused parts or gaps limits assumed): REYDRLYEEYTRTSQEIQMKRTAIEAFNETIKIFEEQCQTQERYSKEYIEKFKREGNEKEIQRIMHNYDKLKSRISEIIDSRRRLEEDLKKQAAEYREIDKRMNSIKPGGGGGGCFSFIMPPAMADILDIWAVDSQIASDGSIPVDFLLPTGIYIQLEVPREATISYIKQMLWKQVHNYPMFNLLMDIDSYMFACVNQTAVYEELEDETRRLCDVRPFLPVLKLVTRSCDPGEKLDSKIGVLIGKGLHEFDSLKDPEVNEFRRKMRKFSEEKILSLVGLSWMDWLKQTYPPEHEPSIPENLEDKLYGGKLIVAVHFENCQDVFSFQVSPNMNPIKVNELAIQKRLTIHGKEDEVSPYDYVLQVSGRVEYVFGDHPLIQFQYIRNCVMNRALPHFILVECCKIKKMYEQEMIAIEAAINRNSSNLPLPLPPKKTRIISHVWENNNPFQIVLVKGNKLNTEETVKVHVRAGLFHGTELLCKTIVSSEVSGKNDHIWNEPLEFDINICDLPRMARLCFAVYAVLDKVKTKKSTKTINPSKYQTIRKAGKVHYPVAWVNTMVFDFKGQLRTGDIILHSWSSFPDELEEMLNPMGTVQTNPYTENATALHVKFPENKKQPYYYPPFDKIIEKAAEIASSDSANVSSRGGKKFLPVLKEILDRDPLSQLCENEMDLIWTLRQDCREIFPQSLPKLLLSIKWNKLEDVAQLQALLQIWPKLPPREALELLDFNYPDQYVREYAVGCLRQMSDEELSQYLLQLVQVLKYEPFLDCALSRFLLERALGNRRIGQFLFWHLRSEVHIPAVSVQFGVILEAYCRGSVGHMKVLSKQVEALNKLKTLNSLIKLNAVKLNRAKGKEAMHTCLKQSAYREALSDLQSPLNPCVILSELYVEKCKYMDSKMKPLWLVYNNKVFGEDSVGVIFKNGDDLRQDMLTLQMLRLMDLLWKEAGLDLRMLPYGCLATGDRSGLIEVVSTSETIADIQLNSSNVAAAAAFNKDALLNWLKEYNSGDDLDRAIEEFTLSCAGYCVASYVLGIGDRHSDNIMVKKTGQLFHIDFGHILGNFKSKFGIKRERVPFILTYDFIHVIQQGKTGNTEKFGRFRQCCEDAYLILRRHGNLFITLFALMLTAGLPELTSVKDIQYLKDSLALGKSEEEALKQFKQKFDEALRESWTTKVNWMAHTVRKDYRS
Summary of the method: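 p110β full-length/p85 iSH2 construct (BV-949), 25 nM, with 1 μM ATP and 10 μg/mL phosphatidylinositol in 10 mM Tris pH 7.5, 3 mM MgCl2, 50 mM NaCl, 0.05% CHAPS, 1 mM DTT. 60 min at room temperature; ATP remaining read by Kinase-Glo luminescence. IC50 from 8-point four-parameter logistic fit.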

PI3K gamma = molecular target: T3, PI3K gamma (Homo sapiens, UniProt P48736); test: PI3K gamma kinase assay (Kinase-Glo luminescence); assay type: biochemical
T3 construct: His tag (C); made in house; host or cells: baculovirus (pVL1393); Tn5 or TiniPro insect cells; construct from Roger Williams lab, MRC LMB
T3 sequence (P48736 144-1102 limits assumed): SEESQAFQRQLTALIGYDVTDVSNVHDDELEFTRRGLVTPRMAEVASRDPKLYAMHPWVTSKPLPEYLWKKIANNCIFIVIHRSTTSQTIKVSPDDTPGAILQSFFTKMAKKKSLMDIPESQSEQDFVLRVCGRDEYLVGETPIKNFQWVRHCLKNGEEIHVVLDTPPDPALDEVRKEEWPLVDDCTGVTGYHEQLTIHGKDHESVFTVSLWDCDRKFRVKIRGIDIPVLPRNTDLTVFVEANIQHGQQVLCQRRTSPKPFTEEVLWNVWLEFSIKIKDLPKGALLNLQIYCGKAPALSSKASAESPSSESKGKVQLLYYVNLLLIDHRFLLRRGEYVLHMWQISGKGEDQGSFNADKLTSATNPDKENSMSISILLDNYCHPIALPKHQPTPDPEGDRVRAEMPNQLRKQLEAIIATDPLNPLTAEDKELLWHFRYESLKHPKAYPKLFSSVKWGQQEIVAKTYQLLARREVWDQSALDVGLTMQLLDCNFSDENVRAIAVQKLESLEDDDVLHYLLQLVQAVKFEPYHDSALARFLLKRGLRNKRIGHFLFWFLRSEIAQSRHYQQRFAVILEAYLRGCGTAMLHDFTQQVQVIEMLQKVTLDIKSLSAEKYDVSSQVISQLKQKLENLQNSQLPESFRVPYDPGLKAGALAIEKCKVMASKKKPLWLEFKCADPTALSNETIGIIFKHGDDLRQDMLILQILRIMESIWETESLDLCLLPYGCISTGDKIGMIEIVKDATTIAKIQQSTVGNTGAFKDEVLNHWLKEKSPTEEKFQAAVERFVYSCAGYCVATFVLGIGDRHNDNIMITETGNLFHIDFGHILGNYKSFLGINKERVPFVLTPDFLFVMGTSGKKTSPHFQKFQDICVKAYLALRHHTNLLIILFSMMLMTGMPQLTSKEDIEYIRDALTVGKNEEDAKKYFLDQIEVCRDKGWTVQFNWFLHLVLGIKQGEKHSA
Summary of the method: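 Luminescent ATP-depletion (Kinase-Glo) assay with 150 nM PI3Kγ, 1 μM ATP and 10 μg/mL phosphatidylinositol in 10 mM Tris-HCl pH 7.5, 3 mM MgCl2, 50 mM NaCl, 0.05% CHAPS, 1 mM DTT; 120 min at room temperature. Eight-point dilutions; IC50 by four-parameter logistic fit.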

[2] = tested on: PKB Ser473 phosphorylation in Rat1-myr-HA-p110 alpha cells; test: Reverse protein array assay, PKB Ser473 phosphorylation in Rat1-myr-p110 alpha cells; assay type: cell-based; settings: 0.5 h, pAkt Ser473, 30 minutes compound incubation, read-out: p-PKB IC50
Summary of the method: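 Lysates were arrayed at four dilutions, and phospho-PKB Ser473 was quantified by relative fluorescence signal. They came from Rat1-myr-HA-p110 alpha, beta or delta cells exposed for 30 min at 37 °C to an 8-point compound series with 0.2% DMSO constant.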

| Papp A→B [1] | IC50 (PI3K alpha) | IC50 (PI3K beta) | IC50 (PI3K gamma) | IC50 [2] | Structure (SMILES) |
| --- | --- | --- | --- | --- | --- |
| 28.6 ×10⁻⁶ cm/s | 6 nM | 20 nM | 144 nM | 9 nM | COc1ccc(-c2ccc3ncc4c(c3c2)n(-c2cn(C)nc2C)c(=O)n4C)cc1OC [Example 1.8, 8-(3,4-Dimethoxy-phenyl)-1-(1,3-dimethyl-1H-pyrazol-4-yl)-3-methyl-1,3-dihydro-imidazo[4,5-c]quinolin-2-one] |
| 31.2 ×10⁻⁶ cm/s | 37 nM | 340 nM | 357 nM | 35 nM | CCOc1ccc(-c2ccc3ncc4c(c3c2)n(-c2cn(CC)nc2C)c(=O)n4C)cn1 [Example 3.5, 8-(6-Ethoxy-pyridin-3-yl)-1-(1-ethyl-3-methyl-1H-pyrazol-4-yl)-3-methyl-1,3-dihydro-imidazo[4,5-c]quinolin-2-one] |
| 35.1 ×10⁻⁶ cm/s | 60 nM | 762 nM | 407 nM | 16 nM | Cc1nn(C(C)C)cc1-n1c(=O)n(C)c2cnc3ccc(-c4ccc(N(C)C)nc4)cc3c21 [Example 4.1, 8-(6-Dimethylamino-pyridin-3-yl)-1-(1-isopropyl-3-methyl-1H-pyrazol-4-yl)-3-methyl-1,3-dihydro-imidazo[4,5-c]quinolin-2-one] |
| 29.7 ×10⁻⁶ cm/s | 60 nM | 495 nM | – | 42 nM | CCn1cc(-n2c(=O)n(C)c3cnc4ccc(-c5cnc(N(C)C)nc5)cc4c32)c(C)n1 [Example 6.4, 8-(2-Dimethylamino-pyrimidin-5-yl)-1-(1-ethyl-3-methyl-1H-pyrazol-4-yl)-3-methyl-1,3-dihydro-imidazo[4,5-c]quinolin-2-one] |
| 5.6 ×10⁻⁶ cm/s | 26 nM | 171 nM | 489 nM | 151 nM | Cc1nn(C)cc1-n1c(=O)n(C)c2cnc3ccc(-c4ccc(CO)nc4)cc3c21 [Example 16.2, 1-(1,3-Dimethyl-1H-pyrazol-4-yl)-8-(6-hydroxymethyl-pyridin-3-yl)-3-methyl-1,3-dihydro-imidazo[4,5-c]quinolin-2-one] |
| 18.4 ×10⁻⁶ cm/s | < 3 nM | 15 nM | 75 nM | 7 nM | CCOc1cc(-c2ccc3ncc4c(c3c2)n(-c2cn(CC)nc2C)c(=O)n4C)ccc1OC [Example 28.1, 8-(3-Ethoxy-4-methoxy-phenyl)-1-(1-ethyl-3-methyl-1H-pyrazol-4-yl)-3-methyl-1,3-dihydro-imidazo[4,5-c]quinolin-2-one] |
| 30.5 ×10⁻⁶ cm/s | 6 nM | 7 nM | 95 nM | 21 nM | Cc1nn(C)cc1-n1c(=O)n(C)c2cnc3ccc(-c4cncc(OC(C)C)c4)cc3c21 [Example 58.1, 1-(1,3-Dimethyl-1H-pyrazol-4-yl)-8-(5-isopropoxy-pyridin-3-yl)-3-methyl-1,3-dihydro-imidazo[4,5-c]quinolin-2-one] |
| – | 29 nM | 112 nM | 341 nM | 166 nM | Cc1nn(C)cc1-n1c(=O)n(C)c2cnc3ccc(-c4cnc5c(c4)nnn5C)cc3c21 [Example 72, 1-(1,3-Dimethyl-1H-pyrazol-4-yl)-3-methyl-8-(3-methyl-3H-[1,2,3]triazolo[4,5-b]pyridin-6-yl)-1,3-dihydro-imidazo[4,5-c]quinolin-2-one] |
| – | 20 nM | 370 nM | 307 nM | 20 nM | Cc1nn(C)cc1-n1c(=O)n(C)c2cnc3ccc(-c4cnc5c(c4)ncn5C)cc3c21 [Example 74, 1-(1,3-Dimethyl-1H-pyrazol-4-yl)-3-methyl-8-(3-methyl-3H-imidazo[4,5-b]pyridin-6-yl)-1,3-dihydro-imidazo[4,5-c]quinolin-2-one] |
| 26.7 ×10⁻⁶ cm/s | 6 nM | 8 nM | – | < 5 nM | Cc1ncc(-c2ccc3ncc4c(c3c2)n(-c2cn(C)nc2C)c(=O)n4C)cc1OC(C)C [Example 84.1, 1-(1,3-Dimethyl-1H-pyrazol-4-yl)-8-(5-isopropoxy-6-methyl-pyridin-3-yl)-3-methyl-1,3-dihydro-imidazo[4,5-c]quinolin-2-one] |
| – | 17 nM | 95 nM | 147 nM | 85 nM | Cc1nn(C)cc1-n1c(=O)n(C)c2cnc3ccc(-c4ccc(OCCO)nc4)cc3c21 [Example 107, 1-(1,3-Dimethyl-1H-pyrazol-4-yl)-8-[6-(2-hydroxy-ethoxy)-pyridin-3-yl]-3-methyl-1,3-dihydro-imidazo[4,5-c]quinolin-2-one] |
| – | 5 nM | 137 nM | 337 nM | 67 nM | CCOc1ccc(-c2ccc3ncc4[nH]c(=O)n(-c5cn(C)nc5C)c4c3c2)cn1 [Example 110, 1-(1,3-Dimethyl-1H-pyrazol-4-yl)-8-(6-ethoxy-pyridin-3-yl)-1,3-dihydro-imidazo[4,5-c]quinolin-2-one] |
| – | 11 nM | 82 nM | 279 nM | < 5 nM | CNc1ccc(-c2ccc3ncc4c(c3c2)n(-c2cn(C)nc2C)c(=O)n4C)cn1 [Example 118.2, 1-(1,3-Dimethyl-1H-pyrazol-4-yl)-3-methyl-8-(6-methylamino-pyridin-3-yl)-1,3-dihydro-imidazo[4,5-c]quinolin-2-one] |
| 15.9 ×10⁻⁶ cm/s | 20 nM | 130 nM | – | < 5 nM | CCn1cc(-n2c(=O)n(C)c3cnc4ccc(-c5ccc(NC)nc5)cc4c32)c(C)n1 [Example 118.4, 1-(1-Ethyl-3-methyl-1H-pyrazol-4-yl)-3-methyl-8-(6-methylamino-pyridin-3-yl)-1,3-dihydro-imidazo[4,5-c]quinolin-2-one] |
| – | 19 nM | 93 nM | 184 nM | 254 nM | Cc1nn(C)cc1-n1c(=O)n(C)c2cnc3ccc(-c4cncc(N(C)S(C)(=O)=O)c4)cc3c21 [Example 121, N-{5-[1-(1,3-Dimethyl-1H-pyrazol-4-yl)-3-methyl-2-oxo-2,3-dihydro-1H-imidazo[4,5-c]quinolin-8-yl]-pyridin-3-yl}-N-methyl-methanesulfonamide] |
| 26.1 ×10⁻⁶ cm/s | 4 nM | 5 nM | – | < 5 nM | Cc1ncc(-c2ccc3ncc4c(c3c2)n(-c2cn(C)nc2C)c(=O)n4C)cc1OC(CF)CF [Example 189, 1-(1,3-Dimethyl-1H-pyrazol-4-yl)-8-[5-(2-fluoro-1-fluoromethyl-ethoxy)-6-methyl-pyridin-3-yl]-3-methyl-1,3-dihydro-imidazo[4,5-c]quinolin-2-one] |
| 22.1 ×10⁻⁶ cm/s | 5 nM | 33 nM | 125 nM | 7 nM | COc1ccc(-c2ccc3ncc4[nH]c(=O)n(-c5cn(C)nc5C)c4c3n2)cc1OC [Example 249, 8-(3,4-dimethoxy-phenyl)-1-(1,3-dimethyl-1H-pyrazol-4-yl)-1,3-dihydro-1,3,5,9-tetraaza-cyclopenta[a]naphthalen-2-one] |
| – | 5 nM | 68 nM | 185 nM | 41 nM | COc1ccc(-c2ccc3ncc4c(c3n2)n(-c2cn(C)nc2C)c(=O)n4C)cc1OC [Example 250, 8-(3,4-Dimethoxy-phenyl)-1-(1,3-dimethyl-1H-pyrazol-4-yl)-3-methyl-1,3-dihydro-1,3,5,9-tetraaza-cyclopenta[a]naphthalen-2-one] |
